Tests used:
[1] = test system: eIF4A-dependent translation; test: in vitro translation assay, bicistronic FF/HCV/Ren reporter mRNA in Krebs-2 extracts; type: biochemical; conditions: for IC50 / translation inhibition (in words): bicistronic FF/HCV/Ren mRNA; for IC50: FIG. 14/15, read-out: IC50, inhibition of cap-dependent translation (FF relative to REN)
Procedure: Structure-Activity Relationships. With a number of amidino-rocaglates and amino-rocaglates in hand, we evaluated their inhibition of eIF4A-dependent translation using an in vitro assay as depicted in FIG. 14, where a bicistronic reporter mRNA was designed for translation in Krebs-2 extracts. In FIG. 14 the following description applies (a) IC50 was determined from fitted sigmoid curves; […] indicates the concentration of compound that inhibits cap-dependent translation by 50%, which was normalized by cap-independent translation. For its determination, the bicistronic reporter FF/HCV/Ren mRNA was used to produce Firefly luciferase (cap-dependent) and Renilla luciferase (cap-independent) in Krebs-2 extracts in the presence of indicated compounds at various concentrations. In particular, translation of Firefly luciferase (FF) is cap-dependent and depends on eIF4A activity; in contrast, translation of Renilla luciferase (REN) utilizes the HCV internal ribosome entry site (IRES) which functions independently of eIF4A. IC50's were determined by the inhibition of FF relative to REN obtained in the presence of compound relative to vehicle controls and normalized to REN as an internal control. […] In accordance with the eIF4A-RNA-rocaglamide (2) co-crystallographic analysis (FIG. 4), the amide carbonyl of 2 interacts with Gln195 of eIF4A as a H-bond acceptor, while the tertiary hydroxyl of 2 serves as a H-bond donor to an RNA base. […] To further verify the hypothesis, amidino-rocaglates (pKa of N—H˜26.7-30.7 in DMSO, strong H-bond donors) and amino-rocaglates (pKa of N—H˜36 to 44 in DMSO, weak H-bond donors) were next evaluated. […] Conversely, benzyl amidine 9e had IC50=60 nM, whereas the methylene tether may allow conformational adjustment to avoid rigid repulsion in the binding pocket.
The rocaglate collection was also tested in in vitro translation assays using cell-free extracts with a previously described bicistronic mRNA containing the HCV IRES, which is not dependent on eIF4A activity and served as an internal control (FIG. 19C).
(§1) In Vitro Translation Assays. In vitro translation assays performed in Krebs-2 cell extracts were supplemented with 5 mM MgCl2, 30 mM Tris-HCl (pH 7.5), 1.5 mM ATP, 0.1 mM GTP, 0.6 mM CTP, 10 mM dipotassium creatine phosphate, 80 μg/mL creatine kinase, and 0.04 mM amino acids. The specified mRNA reporters were added to each reaction at a final concentration of 10 ng/μL. The translation reactions were incubated with or without compound for 60 minutes at 30° C. prior to the measurement of luciferase activities.
(§2) FIGS. 19A-19C. Rocaglate activity profiling. 19A. Assessing eIF4A1:poly r(AG)8 (SEQ ID NO: 2) RNA binding by FP in the presence of 10 μM rocaglate. Values are expressed relative to vehicle controls and data is rank ordered. n=3±SD. 19B. The change in polarization obtained with eIF4A1:poly r(AG)8 (SEQ ID NO: 2) and eIF4A2:poly r(AG)8 (SEQ ID NO: 2) RNA. Pearson r=0.814; p<0.0001. 19C. Inhibition of cap-dependent translation by rocaglates was measured using the indicated mRNA bicistronic reporter (4 ng/ul) in Krebs-2 extracts at a final compound concentration of 2 μM. n=3±SD.
FIG. 35A-35E are plots showing dose-response curve of FF-HCV-Ren mRNA translation in Krebs extracts with IC50s shown for inhibition of cap-dependent protein synthesis. Values are plotted relative to DMSO controls. n=2 technical replicates performed in duplicate.

[2] = test system: cap-dependent translation; test: in vitro translation of (AG)10- and (UC)10-FF/HCV/Ren mRNA reporters in Krebs-2 extracts; type: biochemical; conditions: cap-proximal (AG)10 or (UC)10
Procedure: Rocaglates show differing mRNA targeting spectra in translation assays. The in vitro experiments described above investigating the rocaglate-mediated inhibition of cap-dependent translation were performed at a fixed rocaglate concentration (2 μM) using a generic bicistronic mRNA reporter in Krebs-2 cell-free translation extracts (FIG. 19C). To better assess the consequences of eIF4A:polypurine clamping on the initiation process, we designed a series of bicistronic reporters harboring cap-proximal polypurine tracks of varying lengths in their 5′ leader region (FIG. 22A). […] We reasoned that these reporters would provide a sensitized readout for rocaglate-induce clamping of eIF4A at this location.
We next tested the response of mRNA reporters containing cap-proximal (AG)10 or (UC)10 sequences (FIG. 22A). […] The difference in activity observed between CR-1-31-B (23) and silvestrol 1 was not restricted to cap-proximal polypurine tracks, but also observed with reporters where the polypurine/polypyrimidine tracks were situated 15 nt downstream from the cap (FIGS. 24A and 24B).
as §1
FIGS. 23A-23C. The presence of polypurines bases in mRNA 5′ leader regions are not universal predictors of rocaglate-responsiveness. FIG. 23A. Schematic diagram of FF/HCV/Ren mRNA reporters containing cap-proximal (AG) or (UC) dinucleotide repeats. 23B. Firefly and renilla luciferase activity in response to the indicated CR-1-31-B (23) concentrations (relative to DMSO controls) in Krebs-2 extracts programmed with 4 ng/uL of the indicated mRNAs. n=3±SD. 23C. Dose response of the indicated compounds in Krebs-2 extracts programmed with 4 ng/μL of the indicated mRNAs. n=3± SD.
FIG. 23. Dose-response of (AG)10- and (UC)10-FF/HCV/Ren mRNAs to CMLD011167, hippuristanol and pateamine A in vitro. Firefly and renilla luciferase activity in response to the indicated compound concentrations (relative to DMSO controls) in Krebs-2 extracts programmed with 4 ng/μL of the indicated mRNAs. n=3± SD.

[3] = test system: HEK 293 cells; test: in cellula translation of transfected (AG)10- and (UC)10-FF/HCV/Ren mRNA; type: cell-based; conditions: compound added 1 h after mRNA transfection, 6 h exposure
From the text: We next asked if differences in behavior among rocaglates towards the (AG)10- and (UC)10-reporters observed in vitro also extended in cellula (FIG. 26B). This was important since in cells, mRNA transcripts need to compete for components of the translation initiation machinery from a complex cellular mRNA pool and this scenario is difficult to recapitulate in experiments using cell-free extracts. Following mRNA transfections, cells were exposed to compound and luciferase activity determined.
RNA Transfections. HEK 293 cells were transfected in a 24 well plate with 0.25 μg/well of in vitro synthesized capped m^7GpppG(AG)10-FF/HCV/Ren or m^7GpppG(UC)10FF/HCV/Ren mRNA and 1 h later were exposed to the indicated concentrations of compounds for an additional 6 h. Following this, extracts were prepared using passive lysis buffer (PLB, Promega) and luciferase activity measured on a Berthold Lumt LB 9507 luminometer.
FIGS. 26A-26B. In cellula activity of rocaglates. 26A. Cytotoxicity of rocaglates towards NIH/3T3 (grey circle) and the NIH/3T3 rocaglate-resistant line, eIF4A^em1JP(redtriangle). Cells were exposed to 40 nM compound for 4 days and viability was measured using the SRB assay. n=3±SD. 26B. Rocaglates show different sequence preferences for inhibiting cap-dependent translation in cellula. HEK 293 cells were transfected with 0.5 μg of in vitro synthesized capped (AG)10-FF/HCV/Ren or (UC)10-FF/HCV/Ren mRNA and 1h later exposed to the indicated concentrations of compounds for an additional 6 h, at which time extracts were prepared and luciferase activity measured. n=3 SD.
FIG. 28. In cellula dose-response of (AG)10- and (UC)10-FF/HCV/Ren mRNAs to hippuristanol and pateamine. Firefly and renilla luciferase activity in response to the indicated compound concentrations (relative to DMSO controls) following mRNA transfections in 293 cells. n=3±SD.

[4] = molecular target: T1, eIF4A1:poly r(AG)8 RNA (Homo sapiens, UniProt P60842); test: fluorescence polarization (FP) assay, eIF4A1 binding to FAM-labelled RNA; conditions: 500 nM eIF4A1, 10 nM FAM-labelled RNA, screen at 10 μM compound
T1 construct: His6 (N); made in house; host or cells: E. coli BL21 (DE3)
T1 sequence (P60842 whole entry, species assumed): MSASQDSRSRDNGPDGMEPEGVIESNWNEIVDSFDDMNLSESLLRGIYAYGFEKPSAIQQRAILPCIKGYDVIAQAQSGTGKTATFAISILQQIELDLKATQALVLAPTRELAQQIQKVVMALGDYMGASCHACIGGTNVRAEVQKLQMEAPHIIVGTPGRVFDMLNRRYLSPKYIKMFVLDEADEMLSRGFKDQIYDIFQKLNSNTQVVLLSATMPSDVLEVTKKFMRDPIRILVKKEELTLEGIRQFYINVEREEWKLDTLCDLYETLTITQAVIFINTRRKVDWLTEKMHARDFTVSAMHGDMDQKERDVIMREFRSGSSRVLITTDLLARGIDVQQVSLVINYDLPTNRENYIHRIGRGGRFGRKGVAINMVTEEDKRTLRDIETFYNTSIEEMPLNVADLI
From the text: Rocaglates similarly enhance RNA binding of eIF4A1 and eIF4A2. In order to rapidly evaluate the ability of rocaglates to stimulate binding of eIF4A to RNA, a fluorescence polarization (FP) assay using a FAM (fluorescein amidite)-labelled RNA probe (FIG. 18A) was used. […] Due to the high degree of shared amino acid identity between the two paralogs, their apparent similarity with respect to RNA binding activity and response to CR-1-31-B (23), and the fact that eIF4A1 is essential but eIF4A2 is not, eIF4A1 was used in the majority of our subsequent experiments.
Fluorescence Polarization (FP) Assays. Unless otherwise specified, eIF4A (500 nM) was incubated with 10 nM FAM-labelled RNA for 30 min in FP buffer (14.4 mM HEPES-NaOH (pH 8), 108 mM NaCl, 1 mM MgCl2, 14.4% glycerol, 0.1% DMSO, 2 mM DTT, 1 mM AMPPNP) at room temperature in black low volume 384 well plates (Corning 3820). FP readings were performed on a Pherastar FS microplate reader (BMG Labtech).
as §2
FIG. 21. Assessing stimulation of eIF4A1:RNA binding by rocaglates and pateamine. FAM-labelled RNA was incubated in the presence of 500 nM eIF4A1 and the indicated concentrations of compound for 30 min, after which time FP measurements were taken. Limitations in WGD-57-591 availability prevented us from extending the titrations to 100 μM. The change in FP obtained relative to vehicle controls is presented. n=3±SD. FP results of competition assays in which preformed eIF4A1:rocaglate:FAM-poly r(AG)10 complexes were incubated in the presence of poly r(AG)10 (SEQ ID NO: 39) and dissociation measured as a function of time. n=3±SD.

For `COCC1=N[C@@]2(O)[C@H](C(=O)OC)[C@@H](c3ccccc3)[C@]3(c4ccc(OC)cc4)Oc4cc(OC)cc(OC)c4[C@]23N1` [9k], which IC50 [1] is on record?
The IC50 was 0.064 µM.

How did the IC50 [1] turn out when `CCCCC1=N[C@@]2(O)[C@H](C(=O)OC)[C@@H](c3ccccc3)[C@]3(c4ccc(OC)cc4)Oc4cc(OC)cc(OC)c4[C@]23N1` [9d] was run?
Its IC50 is 0.187 µM.

For `CONC(=O)[C@H]1[C@@H](O)[C@@]2(O)c3c(OC)cc(OC)cc3O[C@@]2(c2ccc(Br)cc2)[C@@H]1c1ccccc1` [SDS-1-021], which “inhibition of cap-dependent translation in vitro (in words)” value ([1]; screen at 2 μM compound) is on record?
Its value is “the most potent compound”.

Which IC50 [1] does the source give for `COc1ccc([C@@]23Oc4cc(OC)cc(OC)c4[C@@]24NC(C)=N[C@@]4(O)[C@H](C(=O)N(C)C)[C@H]3c2ccccc2)cc1` [9z] here?
Its IC50 is 0.063 µM.

Which IC50 [1] does the source give for `COC(=O)[C@@H]1[C@@H](c2ccccc2)[C@]2(c3ccc(OC)cc3)Oc3cc(OC)cc(OC)c3[C@@]23NC(Cc2ccccc2)=N[C@@]13O` [9e] here?
The IC50 was 0.06 µM.

With `COC(=O)[C@@H]1[C@@H](c2ccccc2)[C@]2(c3ccc(OC)cc3)Oc3cc(OC)cc(OC)c3[C@@]23NC(N)=N[C@@]13O` [9j] as the compound, how does the IC50 [1] read?
The IC50 was 0.125 µM.

How did the “translation inhibition (in words)” value [1] turn out when `COCCN[C@]12c3c(OC)cc(OC)cc3O[C@@]1(c1ccc(OC)cc1)[C@H](c1ccccc1)C[C@@H]2N` [compound 22] was run?
The value was “no translation inhibition”.

Which “inhibition of (AG)10 versus (UC)10 reporter in vitro (in words)” value [2] does the source give for `CC(/C=C/C(C)=C/[C@@H]1Cc2nc(cs2)[C@@H](C)C[C@@H](N)CC(=O)O[C@@H](C)C/C(C)=C/C=C\C(=O)O1)=C\CN(C)C` [pateamine A] here?
The value was “equally repressed cap-dependent translation from both”.

And the “inhibition of (AG)10 versus (UC)10 reporter in cellula (in words)” value [3]?
The value was “inhibited both reporters equally”.

And the “stimulation of eIF4A1:RNA binding (in words)” value [4]?
Its value is “potently induced binding to all RNA substrates tested”.

What does the source list for `C[C@H]1C[C@@]2(O[C@H]3C[C@H]4[C@@H]5CC[C@H]6C[C@H](O)CC[C@]6(C)[C@H]5[C@@H](O)C[C@]4(C)[C@H]3[C@@]2(C)O)OC1(C)C` [hippuristanol]?
inhibition of (AG)10 versus (UC)10 reporter in vitro (in words) [2]: equally repressed cap-dependent translation from both; inhibition of (AG)10 versus (UC)10 reporter in cellula (in words) [3]: inhibited both reporters equally

How did the IC50 [1] turn out when `COc1ccc([C@@]23Oc4cc(OC)cc(OC)c4[C@@]24NC(C)=N[C@@]4(O)[C@H](C(=O)N(C)OC)[C@H]3c2ccccc2)cc1` [9aa] was run?
The IC50 was 0.059 µM.

For `COC(=O)[C@@H]1[C@@H](c2ccccc2)[C@]2(c3ccc(OC)cc3)Oc3cc(OC)cc(OC)c3[C@@]23NC(C(C)(C)C)=N[C@@]13O` [9f], which IC50 [1] is on record?
The IC50 was 0.267 µM.

With `COCCN[C@]12c3c(OC)cc(OC)cc3O[C@@]1(c1ccc(OC)cc1)[C@H](c1ccccc1)C[C@@H]2O` [compound 20] as the compound, how does the “translation inhibition (in words)” value [1] read?
The value was “no translation inhibition”.

With `COCCN[C@]12c3c(OC)cc(OC)cc3O[C@@]1(c1ccc(OC)cc1)[C@H](c1ccccc1)[C@@H](C(=O)N(C)C)[C@H]2O` [compound 18] as the compound, how does the “translation inhibition (in words)” value [1] read?
Its value is “no translation inhibition”.
